# In PMC12040169 (PLOS Biology, 2025):
# Assay: in vitro
# Settings: human, hela cells, % viability
row,SMILES,"viability at 28.5 h, 10 µM"
1,CCOc1ccccc1-c1nnc(SCC(=O)NC2CCCCC2)o1 [CBK268728],106%
2,O=C(NCc1ccc(F)cc1)c1cc(Br)cnc1N1CCOCC1 [CBK076246],89.1%
3,Cc1cc2n(n1)[C@@H](C(F)F)C[C@@H](C1CCCN(C(=O)C3CC3)C1)N2 (some centres unmarked) [CBK284723],98.7%
4,CC1CCCN(c2ccc(NS(=O)(=O)c3ccc4[nH]c(=O)[nH]c(=O)c4c3)cc2)C1 (centres unmarked) [CBK286376],97.5%
5,CCOC(=O)NC(=O)c1ccccc1 [CBK012359],108%
6,O=C(CN1CCOCC1)NC(=O)Nc1ccccc1 [CBK269213],98%
7,Cc1ccc(Oc2ccc(CNC(=O)c3sc4nc[nH]c(=O)c4c3C)cc2)cc1 [CBK285857],91.3%
8,OC1(c2cccnc2)CCN(CC2(c3ccc(Cl)cc3)CC2)CC1 [CBK282780],93%
9,COCC(C)NC(=O)c1cnn2c(C(F)(F)F)cc(-c3cccs3)nc12 (centres unmarked) [CBK307417],104%
10,Cc1ccc(S(=O)(=O)NC(C)(C)CN2CCN(C(c3ccccc3)c3ccccc3)CC2)cc1 [CBK262799],90%
11,Cc1nc(=O)c(-c2ccccc2)c(C)n1CCCCCC(=O)O [CBK287060],113%
12,CN1N=C(N)c2cn([C@@H]3O[C@H](COP(=O)(O)O)[C@H](O)C3O)c3ncnc1c23 (some centres unmarked) [CBK201301],73.9%
13,CC[C@H]1CCCCN1C(=O)c1sc2nc(C(C)=O)ccc2c1Cl [CBK091046],101%
14,CCCc1cc(C(=O)NC2(CN3CCCC3)CCCCC2)[nH]n1 [CBK282464],98.1%
15,Cc1ccc(C(=O)O)cc1NC(=O)C(=O)NCC(c1ccccc1)N(C)C (centres unmarked) [CBK286777],96.3%
16,O=C(c1cccnc1)N1CCN(CC2(c3ccccc3)CC2)CC1 [CBK282906],94.5%
17,O=C(CCn1c(C(F)F)cc2cccnc21)N1CCCC(CO)C1 (centres unmarked) [CBK284985],99.5%
18,N#C/C(=C\c1c[nH]nc1-c1ccccc1)c1nc(-c2cccc([N+](=O)[O-])c2)cs1 [CBK267252],96.8%
19,O=C(O)CCC(=O)Nc1ccc(-c2nc3cc(C(=O)c4ccccc4)ccc3[nH]2)cc1 [CBK267401],100%
20,Cn1cc(C(c2ccccc2OCC(=O)O)c2cn(C)c3ccccc23)c2ccccc21 [CBK266410],112%
21,CCOC(=O)N1CCCC(=O)c2c(C(=O)O)cn(C)c21 [CBK005301],86.4%
22,Cc1ccc(S(=O)(=O)NCCn2nc(C)c(C)c2C)s1 [CBK281502],86.7%

row,SMILES,"viability at 28.5 h, 10 µM"
1,CC1CCc2nc(NC(=O)c3ccccc3)sc2C1 (centres unmarked) [CBK287298],97.2%
2,CC(C)CNc1n[nH]c(=S)s1 [CBK016865],95.9%
3,O=C(NCC1CCCO1)C1(Cc2ccc(-c3ccc(F)c(F)c3)cc2)CCOCC1 (centres unmarked) [CBK285534],97.2%
4,Cc1ccc(Cl)cc1NC(=O)c1cc(NC(=O)C2CCCCC2C(=O)O)ccc1N1CCCCC1 (centres unmarked) [CBK268371],87%
5,COc1ccc(/C=N/NC(=O)CSc2nnc(C)n2-c2ccccc2)cc1 [CBK262812],114%
6,CC(C)c1ccc(CNC(=O)c2ccc3[nH]ccc3c2)cc1 [CBK161754],96.1%
7,O=C1CC(c2ccco2)CC(=O)C1=CNCCN1CCNCC1 (centres unmarked) [CBK263668],99.7%
8,CN(C)CCC1CCCCN1C(=O)C1C2CCCCC21 (centres unmarked) [CBK282055],98.9%
9,CCn1nccc1C(=O)Nc1nc2ccccc2n1CCN1CCCCC1 [CBK265737],89.1%
10,Cc1noc(C)c1NC(=O)c1n[nH]c2ccccc12 [CBK200301],104%
11,CC1CCc2c(sc(NC(=O)c3cc(-c4ccccn4)nc4c(Cl)cccc34)c2C(N)=O)C1 (centres unmarked) [CBK267744],94.1%
12,COc1nc(N)nc2c1ccn2C1CC(O)C(CO)O1 (centres unmarked) [CBK201177],98.6%
13,CNC(=O)N1CCN(CCOC(c2ccc(F)cc2)c2ccc(F)cc2)CC1 [CBK024948C],87.3%
14,NC(=O)c1c(NC(=O)c2ccc(-c3ccccc3)cc2)sc2c1CCC2 [CBK265747],91.3%
15,CCOC(=O)C1=C(C)NC(=O)NC1c1ccc(-c2ccccc2F)o1 (centres unmarked) [CBK263867],95.7%
16,CCN1CCCC(NC(=O)COc2nn(C)c3nc(C)cc(C)c23)C1 (centres unmarked) [CBK305224],113%
17,CC(CCc1ccccc1)NC(=O)CC1COc2ccccc2O1 (centres unmarked) [CBK266203],103%
18,Cc1ccc(C(=O)NC(=O)CSc2nc(N)n[nH]2)cc1 [CBK267523],90.9%
19,CC(=O)Nc1ccc(S(=O)(=O)NCC#N)cc1Cl [CBK045102],97.3%
20,CC(C)(CO)CNc1cncc(-c2ccc(O)cc2)n1 [CBK065386],113%
21,Cc1n[nH]c(C)c1Sc1ccccc1/N=C/c1ccc(C(=O)O)cc1 [CBK262055],86.9%
22,Cc1cc(S(=O)(=O)N2CCCCC2)ccc1OCC(=O)O [CBK269254],80%

row,SMILES,"viability at 28.5 h, 10 µM"
1,COc1ccccc1-c1nc2ccccn2c1CO [CBK173210],113%
2,COCC(=O)N1CCC(c2cc(-c3ccc(F)cc3)n[nH]2)C1 (centres unmarked) [CBK284600],101%
3,Cc1c(C(=O)N2CCNCC2C)nnn1-c1ccc2ncccc2c1 (centres unmarked) [CBK304473],94.6%
4,CCN1CC(C(=O)N2CC(O)CC2c2cc(F)ccc2F)CC1=O (centres unmarked) [CBK304031],103%
5,O=S(=O)(CCc1ccccn1)N1CCC(Cc2ccccc2)CC1 [CBK043632],107%
6,O[C@H]1CN[C@H](c2nc(-c3ccc(OC(F)(F)F)cc3)no2)C1 [CBK288836],112%
7,CCN(CCO)c1ccc(Nc2cc(-c3cccc([N+](=O)[O-])c3)ncn2)cc1 [CBK091002],92.2%
8,COCCCNCC#CCOc1ccccc1OC [CBK267419G],94.5%
9,NC(CSC12CC3CC(CC(C3)C1)C2)C(=O)O (centres unmarked) [CBK287219],88.2%
10,OCc1ccc(-n2ncc(-c3ccc(Br)cc3F)n2)cc1 [CBK112920],96.6%
11,Cc1cccc(-c2ncc(NC(=O)COc3ccc([N+](=O)[O-])cc3)nc2-c2cccnc2)c1 [CBK037096],97.8%
12,Cc1ccc(S(=O)(=O)Nc2nnc(C)s2)cc1 [CBK045486],92.5%
13,COC(=O)c1ccc(NS(=O)(=O)c2cc(Cl)sc2Cl)cc1 [CBK028684],107%
14,FC(F)(F)c1cc(-c2ccccc2)nc2onc(OCCN3CCOCC3)c12 [CBK269392],90.9%
15,O=C(O)c1cc(NCc2cccc(F)c2F)n[nH]1 [CBK287006],93.4%
16,CCN(CC)C(=O)C1C2CCC3(CC(=O)c4ccccc4O3)C21 (centres unmarked) [CBK284923],105%
17,CCn1nc(C)c(-c2cncn2CCCC(C)(C)CO)c1C [CBK281807],84.4%
18,COc1ccccc1-c1cnc(N)c(N[C@@H](CO)C(C)C)n1 [CBK063749],101%
19,O=S(=O)(Nc1ccc2[nH]ccc2c1)c1c(Cl)cc(C(F)(F)F)cc1Cl [CBK156328],75.5%
20,O=C(O)CCc1ccc(-c2ccc(F)cc2)n1-c1cc(Cl)ccc1O [CBK131891],92%
21,CCOc1ccc(/N=N\c2ccc(O)c(/C=N\Nc3ccc([N+](=O)[O-])cc3)c2)cc1 [CBK262111],97.7%
22,COc1cccc(NC(=O)c2cc3ccccc3o/c2=N\O)c1 [CBK288387],86%

row,SMILES,"viability at 28.5 h, 10 µM"
1,CCCSc1cc(=O)oc2ccccc12 [CBK017493],87.3%
2,NS(=O)(=O)c1cccc(NC(=O)c2cccs2)c1 [CBK024419],94.2%
3,C[S+]([O-])CCNC(=O)c1cc(-c2cccs2)no1 (centres unmarked) [CBK282563],84.5%
4,CCCCCNC(=O)C(Cc1ccc(O)c(C(=O)OCc2ccccc2)c1)NC(=O)OC(C)(C)C (centres unmarked) [CBK001708],96.2%
5,O=c1nc(NN=C2CCCCC2)cn[nH]1 [CBK018838],90.8%
6,COc1ccc(C(=O)N2CCC3(CCCN(C(=O)CN4C(=O)CSC4=O)C3)C2)cc1OC (centres unmarked) [CBK137088],115%
7,CN(CC(=O)Nc1cncc(OC2CCNCC2)n1)C(=O)c1ccccc1 [CBK028440T],105%
8,O=c1[nH]c2ccccc2n1CCCN1CCC2(CC1)CN(CCO)c1ccccc12 [CBK137133],97.4%
9,O=C(O)c1ccc(CSc2nnc(-c3ccncc3)o2)cc1 [CBK266352],98.5%
10,CC[C@H]1CN(S(=O)(=O)c2ccccc2)CC[C@H]1CC(=O)N(C)CC#N [CBK289140],108%
11,CN(CCN1CCCC1)c1nccc(N2CCN[C@H]3CS(=O)(=O)C[C@H]32)n1 [CBK306692],85.6%
12,Cn1nc([N+](=O)[O-])nc1OCc1nc2ccccc2n1C [CBK265247],88.9%
13,O=c1[nH]c(SCc2c(Cl)cccc2Cl)nc2ccnn12 [CBK116145],92.8%
14,CCn1c2ccccc2n2c(SCC(=O)O)nnc12 [CBK266869],91.4%
15,C#CCNC(=O)CC[C@H]1CNC(=O)[C@@H]2[C@@H](CCN2Cc2ccc(C)cc2)N1C [CBK289036],101%
16,CCOc1cc(C)ccc1S(=O)(=O)n1nnc2ccccc21 [CBK287796],97.3%
17,C=CCNC(=O)N1CC[C@H]2CC(=O)N(Cc3ccc4c(c3)OCO4)CC[C@H]2C1 [CBK288794],97.8%
18,COc1cc(CNc2cc(-c3ccc(F)c(Cl)c3)nc3ccnn23)cc(OC)c1OC [CBK037209],107%
19,CCn1nc(CC(C)C)cc1C(=O)NCCc1cn2cccnc2n1 [CBK306553],98.9%
20,OC1(c2cccnc2)CCCC2CN(Cc3c(F)cccc3F)CC21 (centres unmarked) [CBK284512],114%

# Same assay, conditions: human, hela cells, % viability, bulk resorufin, single well
row,SMILES,"viability at 28.5 h, 10 µM"
1,C=CCN1C(=O)NC(=O)C(CCc2ccccn2)(CCc2ccccn2)C1=O [CBK268761],104%
2,CS(=O)(=O)c1ccc(-c2ccc3c(c2)COC2(CCN(C(=O)CCCc4ccc(F)cc4)CC2)O3)cc1 [CBK160586],92.5%
3,O=C1NC(=O)C(=Cc2ccc([N+](=O)[O-])o2)C(=O)N1 [CBK017848],106%
